Measurements reported in ChEMBL document CHEMBL4420076, “Amylin and calcitonin receptor agonist” (2017).
Numbered stars: 1 amine (or outer) side, 2 acyl side, 3 side chain; on linkers, the order of the positions; unused ones are H or OH. Peptide text beside a SMILES is read from it. * marks the point of attachment. C18 diacid = O=C(O)CCCCCCCCCCCCCCCCC(=O)*; γGlu = O=C(O)[C@H](CCC(=O)[*:2])N[*:1]; C14 diacid = O=C(O)CCCCCCCCCCCCC(=O)*; Palmitoyl = CCCCCCCCCCCCCCCC(=O)*

Experiments:
[1] = Solubility in 100 mM bistrispropane buffer at pH 6.5 incubated for 18 hrs by UPLC analysis; format: physicochemical
[2] = Solubility in 100 mM bistrispropane buffer at pH 7.5 incubated for 18 hrs by UPLC analysis; format: physicochemical
[3] = biological target: T1, Amylin receptor AMY3; CALCR/RAMP3 (Homo sapiens, UniProt O60896+P30988); experiment: Displacement of [125I]-labeled rat amylin from human amylin receptor expressed in BHK tkts13 whole cells co-expressing RAMP3 incubated for 60 mins by scintillation proximity assay; format: cell-based
T1 sequence (P30988 whole entry): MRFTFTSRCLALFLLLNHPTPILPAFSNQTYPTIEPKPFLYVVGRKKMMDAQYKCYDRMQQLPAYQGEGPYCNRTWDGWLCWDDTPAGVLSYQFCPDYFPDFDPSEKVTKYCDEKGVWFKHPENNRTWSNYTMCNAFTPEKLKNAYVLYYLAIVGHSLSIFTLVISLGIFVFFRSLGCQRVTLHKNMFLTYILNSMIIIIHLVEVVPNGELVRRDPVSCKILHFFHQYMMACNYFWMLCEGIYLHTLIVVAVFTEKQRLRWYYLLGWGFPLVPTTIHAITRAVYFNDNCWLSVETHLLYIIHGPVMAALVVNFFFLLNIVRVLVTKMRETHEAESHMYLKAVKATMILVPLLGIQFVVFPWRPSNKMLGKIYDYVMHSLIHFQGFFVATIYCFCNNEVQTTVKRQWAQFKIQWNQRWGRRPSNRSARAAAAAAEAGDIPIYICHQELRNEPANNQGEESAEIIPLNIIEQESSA
T1 sequence (O60896 whole entry): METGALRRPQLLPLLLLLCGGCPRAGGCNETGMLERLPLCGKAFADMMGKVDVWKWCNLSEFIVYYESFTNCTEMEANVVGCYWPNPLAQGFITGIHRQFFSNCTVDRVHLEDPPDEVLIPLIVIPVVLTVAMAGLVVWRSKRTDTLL

[4] = Solubility in 100 mM glycylglycine buffer at pH 4.0 incubated for 18 hrs by UPLC analysis; format: physicochemical
[5] = Solubility in 100 mM bistrispropane buffer at pH 7.0 incubated for 18 hrs by UPLC analysis; format: physicochemical
[6] = Solubility in 100 mM glycylglycine buffer at pH 5.0 incubated for 18 hrs by UPLC analysis; format: physicochemical
[7] = Solubility in 100 mM bistrispropane buffer at pH 8.0 incubated for 18 hrs by UPLC analysis; format: physicochemical
Calcitonin receptor = biological target: T2, Calcitonin receptor (Homo sapiens, UniProt P30988); experiment: Agonist activity at human calcitonin receptor expressed in BHK570 cells assessed as increase in intracellular cAMP concentration incubated for 3 hrs in absence of albumin by CRE luciferase reporter gene assay; format: functional, cell-based
T2 sequence (P30988 whole entry): T1 sequence (P30988 whole entry)

[8] = biological target: T1, Amylin receptor AMY3; CALCR/RAMP3; experiment: Agonist activity at human amylin receptor expressed in BHK570 cells co-expressing RAMP3 assessed as increase in intracellular cAMP concentration incubated for 3 hrs in absence of albumin by CRE luciferase reporter gene assay; format: functional, cell-based
[9] = Solubility in 100 mM glycylglycine buffer at pH 3.0 incubated for 18 hrs by UPLC analysis; format: physicochemical
[10] = Solubility in 100 mM bistrispropane buffer at pH 6.0 incubated for 18 hrs by UPLC analysis; format: physicochemical

SMILES | solubility at 18 h [1] [µM] | solubility at 18 h [2] [µM] | IC50 [3] [nM] | solubility at 18 h [4] [µM] | solubility at 18 h [5] [µM] | solubility at 18 h [6] [µM] | solubility at 18 h [7] [µM] | EC50 (Calcitonin receptor) [nM] | EC50 [8] [nM] | solubility at 18 h [9] [µM] | solubility at 18 h [10] [µM]
CCCCCCCCCCCCCCCC(=O)N[C@@H](CCC(=O)O)C(=O)N[C@@H](C)C(=O)N[C@@H](CO)C(=O)N[C@@H](CCC(=O)O)C(=O)N[C@@H](CC(C)C)C(=O)N[C@@H](CO)C(=O)N[C@H](C(=O)N[C@@H](C)C(=O)N[C@@H](C)C(=O)N[C@@H](CC(C)C)C(=O)NCC(=O)N[C@@H](CCCNC(=N)N)C(=O)N[C@@H](CC(C)C)C(=O)N[C@@H](CO)C(=O)N[C@@H](C)C(=O)N[C@@H](CCC(=O)O)C(=O)N[C@@H](CC(C)C)C(=O)N[C@@H](Cc1cnc[nH]1)C(=O)N[C@@H](CCC(=O)O)C(=O)N[C@@H](CC(C)C)C(=O)N[C@@H](C)C(=O)N[C@H](C(=O)N[C@@H](CC(C)C)C(=O)N1CCC[C@H]1C(=O)N[C@@H](CCCNC(=N)N)C(=O)N[C@H](C(=O)N[C@@H](CCC(=O)O)C(=O)N[C@H](C(=O)NCC(=O)N1CCC[C@H]1C(=O)N[C@@H](CCC(=O)O)C(=O)N[C@@H](CO)C(=O)N1CCC[C@H]1C(N)=O)[C@@H](C)O)[C@@H](C)O)[C@@H](C)O)[C@@H](C)O (Palmitoyl-EASELSTAALGRLSAELHELATLPRTETGPESP-NH2) | ≥ 200 | ≥ 200 | 0.435 | ≥ 200 | ≥ 200 | ≥ 200 | ≥ 200 | 0.013 | 0.01 | ≥ 200 | ≥ 200
CC(C)C[C@H](NC(=O)[C@H](C)NC(=O)[C@H](C)NC(=O)[C@@H](NC(=O)[C@H](CO)NC(=O)[C@H](CC(C)C)NC(=O)[C@H](CCC(=O)O)NC(=O)[C@H](CO)NC(=O)[C@H](C)NC(=O)CC[C@H](NC(=O)CCCCCCCCCCCCC(=O)O)C(=O)O)[C@@H](C)O)C(=O)NCC(=O)N[C@@H](CCCNC(=N)N)C(=O)N[C@@H](CC(C)C)C(=O)N[C@@H](CO)C(=O)N[C@@H](C)C(=O)N[C@@H](CCC(=O)O)C(=O)N[C@@H](CC(C)C)C(=O)N[C@@H](Cc1cnc[nH]1)C(=O)N[C@@H](CCC(=O)O)C(=O)N[C@@H](CC(C)C)C(=O)N[C@@H](C)C(=O)N[C@H](C(=O)N[C@@H](CC(C)C)C(=O)N1CCC[C@H]1C(=O)N[C@@H](CCCNC(=N)N)C(=O)N[C@H](C(=O)N[C@@H](CCC(=O)O)C(=O)N[C@H](C(=O)NCC(=O)N1CCC[C@H]1C(=O)N[C@@H](CCC(=O)O)C(=O)N[C@@H](CO)C(=O)N1CCC[C@H]1C(N)=O)[C@@H](C)O)[C@@H](C)O)[C@@H](C)O ({C14 diacid-γGlu}-ASELSTAALGRLSAELHELATLPRTETGPESP-NH2) | ≥ 200 | ≥ 200 | 1.14 | ≥ 200 | ≥ 200 | ≥ 200 | ≥ 200 | 0.003 | 0.008 | ≥ 200 | ≥ 200
CC(C)C[C@H](NC(=O)[C@H](CCC(=O)O)NC(=O)[C@H](Cc1cnc[nH]1)NC(=O)[C@H](CC(C)C)NC(=O)[C@H](CCC(=O)O)NC(=O)[C@H](C)NC(=O)[C@H](CO)NC(=O)[C@H](CC(C)C)NC(=O)[C@H](CCCNC(=N)N)NC(=O)CNC(=O)[C@H](CC(C)C)NC(=O)[C@@H](NC(=O)[C@H](C)NC(=O)[C@@H](NC(=O)[C@H](CO)NC(=O)[C@@H](NC(=O)[C@H](CCC(=O)O)NC(=O)[C@H](CO)NC(=O)[C@H](C)NC(=O)CC[C@H](NC(=O)CCCCCCCCCCCCCCCCC(=O)O)C(=O)O)C(C)C)[C@@H](C)O)C(C)C)C(=O)N[C@@H](C)C(=O)N[C@H](C(=O)N[C@@H](CC(C)C)C(=O)N1CCC[C@H]1C(=O)N[C@@H](CCCNC(=N)N)C(=O)N[C@H](C(=O)N[C@@H](CCC(=O)O)C(=O)N[C@H](C(=O)NCC(=O)N[C@@H](CO)C(=O)NCC(=O)N[C@@H](CO)C(=O)N1CCC[C@H]1C(N)=O)[C@@H](C)O)[C@@H](C)O)[C@@H](C)O ({C18 diacid-γGlu}-ASEVSTAVLGRLSAELHELATLPRTETGSGSP-NH2) | ≥ 200 | ≥ 200 | 0.812 | ≥ 200 | ≥ 200 | ≥ 200 | ≥ 200 | 0.013 | 0.032 | ≥ 200 | –
